# Earlier results in patent publication US10016363B2, “Pre-spray emulsions and powders containing non-polar compounds” (VIRUN, INC., priority 2014, dated 2018).
# Conditions: reported HLB value of surfactant
row,Substance,H.L.B.
1,sucrose dipalmitate,7.4
2,sucrose distearate,3
3,sucrose monopalmitate,> 10
